Laboratory results: US11965039B2, “Compstatin analogues and their medical uses” (priority 2018, dated 2024)
Like-named read-outs stand apart in the source and are kept apart here. Starred links: 1 amine or outer side, 2 acyl side, 3 side chain; linkers in the order of their positions; H or OH if unused. Positions of bridges follow the written chain, without caps; N, C: chain ends. Non-standard residues stand in square brackets, D forms with d. Residues, ends and D or L forms follow the SMILES beside them. Groups on a side chain read outwards from the residue. *: point of attachment. Trp(1-Me) = Cn1cc(C[C@H](N)C(=O)O)c2ccccc21; C18 diacid = O=C(O)CCCCCCCCCCCCCCCCC(=O)*; γGlu = O=C(O)[C@H](CCC(=O)[*:2])N[*:1]; Sar = CNCC(=O)O

How the values were obtained:
[1] = test system: classical complement pathway; experiment: In vitro haemolysis assay (inhibition of classical complement pathway); type: cell-based, human
Experimental: The in vitro effect of the compounds of the present invention was assessed by measuring their inhibitory effect of the classical complement pathway in a haemolysis assay. Briefly, compounds of the present invention and reference compounds were dissolved in DMSO and diluted in Tris/Casein Assay Buffer (10 mM Tris, 145 mM NaCl, 0.5 mM MgCl2, 0.15 mM CaCl2), and 0.1% W/V Casein, adjusted to pH 7.4) as 9-point serial dilutions in a 96 well plate. Sensitized sheep red blood cells (RBC) coated with rabbit anti-sheep erythrocyte antiserum (Complement Technology, Inc., TX, USA) were washed in Tris/Casein Assay Buffer. […] from each well of diluted compound was added to a 96-well plate containing 50 μL diluted human serum (Complement Technology, Inc., TX, USA) and incubated for 15 minutes at room temperature. The serum dilution factor was optimized for every serum batch to obtain 70-90% of maximal haemolysis using the protocol. Then 50 μL sensitized sheep red blood cells were added to all wells (10^7 per well). After 30 minutes of incubation at 37 QC with gentle agitation, the reaction was stopped by addition of 50 μL Tris STOP Buffer per well (10 mM EDTA, 10 mM Tris, 145 mM NaCl adjusted to pH 7.4). The RBCs were then removed by centrifugation and the resulting supernatant measured for hemolysis by absorbance at 405 nm. The response was normalized relative to a positive and negative control (vehicle) to calculate the IC50 from the concentration response curve using the 4-parameter logistic (4PL) nonlinear model for curve fitting.

[2] = Solubility test at 10 mg/mL (visual inspection and light scattering); type: physicochemical; details: for Solubility, Condition 1: Acetate pH 4; for Solubility, Condition 2: Acetate pH 5; for Solubility, Condition 3: Phosphate pH 6; for Solubility, Condition 4: Phosphate pH 7; for Solubility, Condition 5: Phosphate pH 7.5
Experimental: The solubility of compounds was assessed by measuring light scattering over a pH interval from pH 4 to pH 7.5.
Compounds were dissolved in a stock solution of 20 mg/mL in H2O at pH 2.5 or pH 10. These stock solutions were diluted 1:1 with 200 mM buffered solution to reach a final solution of 10 mg/mL compound in 100 mM buffer. The 5 investigated conditions were (1) acetate pH 4.0, (2) acetate pH 5.0, (3) phosphate pH 6.0, (4) phosphate pH 7 and (5) phosphate pH 7.5.
Visual inspection included manually checking the 96 well plate for wells that are clear or non-clear. In addition to this a picture of the 96 well plate is taken.
Absorbance was measured at four wavelengths: 280 nm, 325 nm, 340 nm and 360 nm in an UV transparent 96 well microplate in a SpectraMax 190 microplate reader (Molecular Devices).
The criteria for this was a combination of visual inspection and light scattering not exceeding 0.1 AU, where values below 0.1 AU are good in visually clear samples.

[3] = Table 5, different residues at position 3 of Ac-IC(1)XWQDWGEHRC(1)T-NH2, read-out: IC50, CP hemolysis
[4] = human serum, sensitized sheep red blood cells, Table 4, valine 3 vs isoleucine 3 pairs, read-out: CP hemolysis IC50
[5] = human serum, sensitized sheep red blood cells, Table 3, given as upper bounds, read-out: IC50, inhibition of hemolysis

Structure (SMILES): CC[C@H](C)[C@H](NC(C)=O)C(=O)N[C@H]1CSSC[C@@H](C(=O)N[C@H](C(N)=O)[C@@H](C)O)NC(=O)[C@H](CCCNC(=N)N)NC(=O)[C@H](Cc2c[nH]cn2)NC(=O)[C@H](CCC(=O)O)NC(=O)CNC(=O)[C@H](Cc2c[nH]c3ccccc23)NC(=O)[C@H](CC(=O)O)NC(=O)[C@H](CCC(N)=O)NC(=O)[C@H](Cc2c[nH]c3ccccc23)NC(=O)[C@H](C(C)C)NC1=O [A, reference compound] (Ac-ICVWQDWGEHRCT-NH2; disulfide 2-12)
- IC50 [1, 3]: 0.35 µM
- IC50 [1, 4]: 0.35 µM

Structure (SMILES): CC[C@H](C)[C@H](NC(C)=O)C(=O)N[C@H]1CSSC[C@@H](C(=O)N[C@H](C(N)=O)[C@@H](C)O)NC(=O)[C@H](CCCNC(=N)N)NC(=O)[C@H](Cc2c[nH]cn2)NC(=O)[C@H](Cc2c[nH]cn2)NC(=O)CNC(=O)[C@H](Cc2c[nH]c3ccccc23)NC(=O)[C@H](CC(=O)O)NC(=O)[C@H](CCC(N)=O)NC(=O)[C@H](C(C)C)NC(=O)[C@H](C(C)C)NC1=O [Ac-compstatin, reference compound]
- IC50 ([1]; human serum, sensitized sheep red blood cells, Table 3, cells printed in μM, read-out: IC50, inhibition of hemolysis): > 5 µM

Structure (SMILES): CC[C@H](C)[C@H](NC(C)=O)C(=O)N[C@H]1CSSC[C@@H](C(=O)N[C@H](C(N)=O)[C@@H](C)O)NC(=O)[C@H](CCCNC(=N)N)NC(=O)[C@H](Cc2c[nH]cn2)NC(=O)[C@H](CO)NC(=O)CNC(=O)[C@H](Cc2c[nH]c3ccccc23)NC(=O)[C@H](CC(=O)O)NC(=O)[C@H](CCC(N)=O)NC(=O)[C@H](Cc2c[nH]c3ccccc23)NC(=O)[C@H](C(C)C)NC1=O [B, reference compound] (Ac-ICVWQDWGSHRCT-NH2; disulfide 2-12)
- IC50 [1, 4]: 0.36 µM

Structure (SMILES): CC[C@H](C)[C@H](NC(=O)[C@H](C)NC(=O)[C@H](CO)NC(=O)[C@H](CO)NC(=O)[C@H](CCC(=O)O)NC(C)=O)C(=O)N[C@H]1CSSC[C@@H](C(=O)N[C@H](C(N)=O)[C@@H](C)O)NC(=O)[C@H](CCCNC(=N)N)NC(=O)[C@H](Cc2c[nH]cn2)NC(=O)[C@H](CCC(=O)O)NC(=O)CNC(=O)[C@H](Cc2c[nH]c3ccccc23)NC(=O)[C@H](CC(=O)O)NC(=O)[C@H](CCC(N)=O)NC(=O)[C@H](Cc2c[nH]c3ccccc23)NC(=O)[C@H](C(C)C)NC1=O [C, reference compound] (Ac-ESSAICVWQDWGEHRCT-NH2; disulfide 6-16)
- IC50 [1, 4]: 0.3 µM

Structure (SMILES): CC[C@H](C)[C@H](NC(C)=O)C(=O)N[C@H]1CSSC[C@@H](C(=O)N[C@H](C(N)=O)[C@@H](C)O)NC(=O)[C@H](CCCNC(=N)N)NC(=O)[C@H](Cc2c[nH]cn2)NC(=O)[C@H](CCC(=O)O)NC(=O)CNC(=O)[C@H](Cc2c[nH]c3ccccc23)NC(=O)[C@H](CC(=O)O)NC(=O)[C@H](CCC(N)=O)NC(=O)[C@H](Cc2c[nH]c3ccccc23)NC(=O)[C@H]([C@@H](C)CC)NC1=O [Compound 2] (Ac-ICIWQDWGEHRCT-NH2; disulfide 2-12)
- IC50 [1, 3]: < 0.1 µM
- IC50 [1, 5]: < 0.1 µM
- IC50 [1, 4]: 0.094 µM

Structure (SMILES): CC[C@H](C)[C@H](NC(C)=O)C(=O)N[C@H]1CSSC[C@@H](C(=O)N[C@H](C(N)=O)[C@@H](C)O)NC(=O)[C@H](CCCNC(=N)N)NC(=O)[C@H](Cc2c[nH]cn2)NC(=O)[C@H](C)NC(=O)CNC(=O)[C@H](Cc2c[nH]c3ccccc23)NC(=O)[C@H](CC(=O)O)NC(=O)[C@H](CCC(N)=O)NC(=O)[C@H](Cc2c[nH]c3ccccc23)NC(=O)[C@H](C(C)C)NC1=O [Compound 4W9A, reference compound]
- IC50 ([1]; human serum, sensitized sheep red blood cells, Table 2, read-out: CP hemolysis IC50): 0.25 µM
- IC50 [1, 5]: < 0.5 µM

Structure (SMILES): CC[C@H](C)[C@H](NC(C)=O)C(=O)N[C@H]1CSSC[C@@H](C(=O)N[C@H](C(N)=O)[C@@H](C)O)NC(=O)[C@H](CCCNC(=N)N)NC(=O)[C@H](Cc2c[nH]cn2)NC(=O)[C@H](CCC(=O)O)NC(=O)CNC(=O)[C@H](Cc2c[nH]c3ccccc23)NC(=O)[C@H](CC(=O)O)NC(=O)[C@H](CCC(N)=O)NC(=O)[C@H](Cc2cn(C)c3ccccc23)NC(=O)[C@H]([C@@H](C)CC)NC1=O [Compound 4] (Ac-ICI[Trp(1-Me)]QDWGEHRCT-NH2; disulfide 2-12)
- IC50 [1, 5]: < 0.1 µM

Structure (SMILES): CC[C@H](C)[C@@H]1NC(=O)[C@@H](NC(=O)[C@H](Cc2ccc(O)cc2)NC(=O)[C@H](C)NC(=O)[C@H](CO)NC(C)=O)CSSC[C@@H](C(=O)N(C)CC(=O)N[C@@H](CCC(=O)O)C(=O)N[C@@H](CCCCNC(=O)CC[C@H](NC(=O)CNC(=O)[C@H](CCCCN)NC(=O)CC[C@H](NC(=O)CCCCCCCCCCCCCCCCC(=O)O)C(=O)O)C(=O)O)C(N)=O)NC(=O)[C@H](CCCNC(=N)N)NC(=O)[C@H](Cc2c[nH]cn2)NC(=O)[C@H](CCC(=O)O)NC(=O)CNC(=O)[C@H](Cc2c[nH]c3ccccc23)NC(=O)[C@H](CC(=O)O)NC(=O)[C@H](CCC(N)=O)NC(=O)[C@H](Cc2cn(C)c3ccccc23)NC1=O [Compound 105] (Ac-SAYCI[Trp(1-Me)]QDWGEHRC[Sar]EK([γGlu-Gly-Lys-γGlu-C18 diacid])-NH2; disulfide 4-14)
- Solubility, Condition 1 [2]: − (“−” denotes lack of solubility at the given condition, as UV absorbance at 340 nm exceeds 0.1 AU and/or it is visibly turbid or contains particles)
- Solubility, Condition 2 [2]: − (“−” denotes lack of solubility at the given condition, as UV absorbance at 340 nm exceeds 0.1 AU and/or it is visibly turbid or contains particles)
- Solubility, Condition 3 [2]: + (“+” denotes solubility at the given condition, as determined by UV absorbance being less than 0.1 AU at 340 nm and the sample being clear when manually inspected)
- Solubility, Condition 4 [2]: + (“+” denotes solubility at the given condition, as determined by UV absorbance being less than 0.1 AU at 340 nm and the sample being clear when manually inspected)
- Solubility, Condition 5 [2]: + (“+” denotes solubility at the given condition, as determined by UV absorbance being less than 0.1 AU at 340 nm and the sample being clear when manually inspected)

Structure (SMILES): CC[C@H](C)[C@@H]1NC(=O)[C@@H](NC(=O)[C@H](Cc2ccc(O)cc2)NC(=O)[C@H](CCC(=O)O)NC(=O)[C@H](CO)NC(C)=O)CSSC[C@@H](C(=O)N(C)CC(=O)N[C@@H](CCC(=O)O)C(=O)NCC(=O)N[C@@H](CCC(=O)O)C(=O)N[C@@H](CCCCNC(=O)CC[C@H](NC(=O)[C@H](CCCCN)NC(=O)CC[C@H](NC(=O)CCCCCCCCCCCCCCCCC(=O)O)C(=O)O)C(=O)O)C(N)=O)NC(=O)[C@H](CCCNC(=N)N)NC(=O)[C@H](Cc2c[nH]cn2)NC(=O)[C@H](CCC(=O)O)NC(=O)CNC(=O)[C@H](Cc2c[nH]c3ccccc23)NC(=O)[C@H](CC(=O)O)NC(=O)[C@H](CCC(N)=O)NC(=O)[C@H](Cc2cn(C)c3ccccc23)NC1=O [Compound 116] (Ac-SEYCI[Trp(1-Me)]QDWGEHRC[Sar]EGEK([γGlu-Lys-γGlu-C18 diacid])-NH2; disulfide 4-14)
- Solubility, Condition 1 [2]: − (“−” denotes lack of solubility at the given condition, as UV absorbance at 340 nm exceeds 0.1 AU and/or it is visibly turbid or contains particles)
- Solubility, Condition 2 [2]: − (“−” denotes lack of solubility at the given condition, as UV absorbance at 340 nm exceeds 0.1 AU and/or it is visibly turbid or contains particles)
- Solubility, Condition 3 [2]: + (“+” denotes solubility at the given condition, as determined by UV absorbance being less than 0.1 AU at 340 nm and the sample being clear when manually inspected)
- Solubility, Condition 4 [2]: + (“+” denotes solubility at the given condition, as determined by UV absorbance being less than 0.1 AU at 340 nm and the sample being clear when manually inspected)
- Solubility, Condition 5 [2]: + (“+” denotes solubility at the given condition, as determined by UV absorbance being less than 0.1 AU at 340 nm and the sample being clear when manually inspected)
